The nature of data set [1]: Parallel artificial membrane permeability assay (PAMPA). It is filed as in vitro ADME. To be noted: 10 uM, pH 7.4, four hours. How it is done:
4.9 Study of membrane permeability of single-ligand and dual-ligand PROTACs Parallel artificial membrane permeability assay (PAMPA) is a non-cell based assay designed to predict passive, transcellular permeability of a test compound through a PVDF membrane filter pretreated with lipid. At a given pH a log Pe (log of effective permeability) can be determined by a UV spectrophotometer. […]
is carried out in the company of Eurofins Panlabs, 6 Research Park Dr. St. Charles, MO 63304, U.S.A. The results are attached as an excel file.
Sample preparation The test compound is prepared from a 10 mM DMSO stock solution and diluted to a single final concentration of 10 uM in donor buffer. The donor solution is placed in contact with the acceptor buffer at a single pH = 7.4 with the membrane in between and the sandwich is incubated for four hours at ambient temperature.
Reference compounds Ketoprofen, propranolol and furosemide. The reference compounds yield log Pe (10-6 cm/s) values that cover the typical range of the assay from high (Propranolol), mid (Ketoprofen) to low (Furosemide) permeability.
Analytical method UV/Vis spectrophotometer
The UV absorption is measured from 250 to 500 nm for both donor and acceptor plate.
Adjustments to the method may be made as necessary to improve detection or UV spectrum.
Data analysis The amount of compound UV absorbance is determined in the donor plate prior to starting the experiment for each compound. The UV absorbance was measured from the (1 picture or pasted object on this page, not shown here) […]
donor and acceptor plate after a four hour incubation time. The log Pe was calculated using […]
4.10 Statistical Analysis.
Data analyses were performed using GraphPad Prism 9 software. The results are presented as the mean ± standard deviation (SD) or standard error of mean (SEM). All statistical analyses were evaluated with one-way analysis of variance (ANOVAs), or unpaired Student’s t-test. The difference was considered statistically significant when P < 0.05.
For orientation: PAMPA measures passive passage across an artificial lipid membrane.

Another data set relates to A549 xenograft. The data set can be described thus: A549 xenograft mouse model, tumor growth. Particulars: i.p. In kind it is in vivo. How it is done: 4.7 Therapeutic anti-tumor evaluation
Animal experiments were carried out in accordance with the regulatory guidelines of the Ethics Committee of the Ghent University Hospital. 30 female Swiss Nude Immunodeficient mice (Crl:NU(Ico)-Foxn1nu) of 5 weeks-6 weeks old (Charles River) were subcutaneously injected with […] A549 (1:1 serum free DMEM medium: Matrigel (Corning)). 10 days post inoculation ,mice were randomized into five groups (6 mice/group) with equal average tumor volume and treatment was started: (1) the control group: Vehicle(20% PEG400 and 5% […]
2J2V group (0.1 mg/kg), (5) the 2J2V group(0.5 mg/kg).Mice were treated on Day 0, Day 2, Day 4, Day 11, Day 18 by intraperitoneal injection. Tumor growth was monitored every 3 days by caliper, and the tumor volume was calculated as 1/2 × length × width2. Body weight was monitored every 3 days by weighing scale. […]
The reduced […]
proteins were alkylated with 40 mM iodoacetamide (IAA) in the dark for 30 minutes. Then samples were acidified with 1.2% aqueous phosphoric acid and mixed with 6× volumes of 90% methanol, 100 mM TEAB, pH 7.1 (S-Trap binding buffer). The samples were loaded onto the (1 picture or pasted object on this page, not shown here)

On to `Cc1sc2c(c1C)C(c1ccc(Cl)cc1)=N[C@@H](CC(=O)NCCOCCOCCNC(=O)C[C@H](NC(=O)COCCOCCOCCOCCn1cc(CCC(=O)N[C@@H](CC(=O)NCCOCCOCCNc3cccc4c3C(=O)N(C3CCC(=O)NC3=O)C4=O)C(=O)NCCOCCOCCNc3cccc4c3C(=O)N(C3CCC(=O)NC3=O)C4=O)nn1)C(=O)NCCOCCOCCNC(=O)C[C@@H]1N=C(c3ccc(Cl)cc3)c3c(sc(C)c3C)-n3c(C)nnc31)c1nnc(C)n1-2` (some centres unmarked) [2J2P], for which, in data set [1], the membrane permeability result is reported as “high membrane permeability”.

With `Cc1ncsc1-c1ccc(C(C)NC(=O)C2CC(O)CN2C(=O)C(NC(=O)COCCOCCNC(=O)CC(NC(=O)CCc2cn(CCOCCOCCOCCOCC(=O)NC(CC(=O)NCCOCCOCCNC(=O)CC3N=C(c4ccc(Cl)cc4)c4c(sc(C)c4C)-n4c(C)nnc43)C(=O)NCCOCCOCCNC(=O)CC3N=C(c4ccc(Cl)cc4)c4c(sc(C)c4C)-n4c(C)nnc43)nn2)C(=O)NCCOCCOCC(=O)NC(C(=O)N2CC(O)CC2C(=O)NC(C)c2ccc(-c3scnc3C)cc2)C(C)(C)C)C(C)(C)C)cc1` (centres unmarked) [2J2V], in data set [1], the membrane permeability entry is “very limited membrane permeability”. The tumor growth entry in the data set with A549 xenograft (higher dose of 0.5 mg kg−1, Swiss nude mice) was “potent reduction in tumor growth”.

For the compound `Cc1ncsc1-c1ccc(CNC(=O)C2CC(O)CN2C(=O)C(NC(=O)COCCOCCOCCNC(=O)CC2N=C(c3ccc(Cl)cc3)c3c(sc(C)c3C)-n3c(C)nnc32)C(C)(C)C)cc1` (centres unmarked) [MZ1, reference compound], the membrane permeability result in data set [1] was “very limited membrane permeability”. Moreover, the anti-tumor activity result in the data set on A549 xenograft (0.5 and 0.1 mg kg−1, Swiss nude mice) is listed as “did not exhibit significant anti-tumor activity”.
